The text below walks through data of patent EP2138545B1, “USE OF PORPHYRAZINE DERIVATIVE AS SEMICONDUCTOR” (Hiroshima University, priority 2007, dated 2008).

Usually solubility stands for the concentration that dissolves in the medium under given conditions.

Structures are written as SMILES. Converted amounts (≈) assume the structure as drawn. Where two headings read alike, the source gives them in different places. Where only a bound is given, the exact number is not on record here.

A short description of the data set: Measurement of solubility in chloroform and in dichloromethane (solvent added by 0.1 mL until the whole amount dissolved). Conditions: for solubility: organic solvent or mixture, thermodynamic from solid. Format: physicochemical. How it is done:
Respective compounds indicated by "6" and "7" were subjected to measurements of solubility in chloroform and in dichloromethane. In the measurements, approximately 3mg of a compound was prepared in advance by a precise weighing. Then, a solvent was added by 0.1mL to the compound and thereafter stirred or subjected to ultrasonic agitation. The solubility (mg/mL) was determined from an amount of the solvent used in dissolving a whole amount of the compound.

Where the note is “solvent chloroform”, `CCCCCCc1cc2c(s1)-c1nc-2nc2[nH]c(nc3nc(nc4[nH]c(n1)c1cc(CCCCCC)sc41)-c1cc(CCCCCC)sc1-3)c1cc(CCCCCC)sc21` [compound 6, Tetra(hexylthieno)porphyrazine] had a solubility in chloroform of 29000 µg/mL (≈ 33100 µM). Turning to `CCCCCCc1cc2c(s1)C1=NC2=Nc2c3sc(CCCCCC)cc3c3[n]2[Cu][n]2c(c4cc(CCCCCC)sc4c2=NC2=NC(=N3)c3sc(CCCCCC)cc32)=N1` [compound 7, Copper (II) complex], under “solvent chloroform”, the solubility in chloroform turned out to be 11000 µg/mL. Moreover, the solubility in dichloromethane (solvent dichloromethane) was found to be 10000 µg/mL. `c1cc2c(s1)-c1nc-2nc2[nH]c(nc3nc(nc4[nH]c(n1)c1ccsc41)-c1ccsc1-3)c1ccsc21` [unsubstituted phthalocyanine derivative, reference compound]: the solubility reads like this: (solvent chloroform, read-out: solubility in chloroform) < 20 µg/mL; (solvent dichloromethane, read-out: solubility in dichloromethane) < 20 µg/mL.
